One may read the CC50 as the concentration giving 50% cytotoxicity.

In brackets after ≈: the same amount, converted by molar mass. Read-outs that look alike come from different tables or passages of the source.

The text below walks through data of PMC9186351, “Discovery of N-quinazolinone-4-hydroxy-2-quinolone-3-carboxamides as DNA gyrase B-targeted antibacterial agents” (Journal of Enzyme Inhibition and Medicinal Chemistry, 2022).

The nature of data set [1]: Cytotoxicity, SRB assay, HepG2. The class given is cell-based, human. The following applies: human, HepG2 cells, read-out: CC50 for HepG2 cells (positive control). Here is the method:
(§1) Cytotoxicity in terms of CC50 was determined by the SRB assay according to the protocol described in our previous publication.[16] Briefly, human HUVECs or HepG2 cells were seeded in the wells of 96-well plates at a concentration of 1 × 10^5 cells per well and incubated at 37 °C for 24 h. […] The cells were fixed with 10% trichloroacetic acid (w/v) at 4 °C for 1 h, washed five times with distilled water, and stained with 0.4% SRB solution at room temperature for another 20 min. The cells were then washed five times with 1% acetic acid and air-dried. The protein-bound dye was dissolved in 10 mM Tris-base solution and shaken for 5 min. The optical density (OD) was measured at 540 nm using a microplate reader to estimate the cell viability (%). With the viability values (%) of the cells treated by the compound at different concentrations as input, the CC50 value was determined by the non-linear regression with normalised dose-response fit implemented in GraphPad Prism version 5 software (GraphPad Software Inc., La Jolla, CA). The experiment was performed in duplicate, and paclitaxel was used as the positive drug for this assay.
A general note: Sulforhodamine B stains cellular protein and so reports cell mass.

Data set [2] in a line: Cytotoxicity, SRB assay, HUVEC. It is filed as cell-based, human. The following applies: human, HUVEC cells, read-out: CC50 for HUVECs (positive control). Here is the method:
as §1

Data set [3] in a line: Mouse microsomal stability assay. It is filed as in vitro ADME. The following applies: pH 7.4; mouse liver microsomes, NADPH; read-out: In vitro metabolic stability t1/2 (min) in liver microsomes. Here is the method:
The mouse liver microsomes were purchased from BioreclamationIVT and stored at −80 °C. The working solutions (0.2 mM) of the control compound, i.e. dextromethorphan, and the test compound dissolved in DMSO were prepared. Terfenadine (5 ng/mL) and tolbutamide (10 ng/mL) dissolved in acetonitrile were used as two quenching solutions. NADPH was dissolved in the phosphate buffer (50 mM K2HPO4, pH 7.4) at 5 mM. The mouse liver microsomes were thawed at 37 °C. The concentration of the stock solution was 20 mg/mL. The working solution (0.629 mg/mL) was prepared by dilution in phosphate buffer.
The working solution of the control/test compound (1.5 µL) was mixed with the liver microsome working solution (238.5 µL) in a 96-well plate and pre-incubated at 37 °C for 5 min. The 5 mM NADPH working solution (60 µL) was added to the solution to initiate the metabolic reaction. At each time point (0, 5, 15, 30, and 60 for the control/test compound), 30 µL of the reaction mixture was sampled and moved to 300 µL of quenching solutions. When the sampling was done, each sample was centrifuged at 4000 rpm at 4 °C for 15 min. The supernatant was analysed with the same HPLC system as the plasma stability assay. The residues (%) of the test/control compound along with the incubation time were calculated based on which the half-life (t1/2) value was determined.

In data set [4] the test system is methicillin-sensitive S. aureus (MSSA). Put plainly: MIC by broth microdilution, MSSA isolates. The class given is cell-based. The following applies: Staphylococcus aureus. How it is done:
(§2) All of the bacterial strains used in this study were obtained from the Collection Centre of Pathogen Microorganism of Chinese Academy of Medical Sciences (CAMS-CCPM-A) in China. All of the isolates were stored at −80 °C and streaked on tryptic soy agar (TSA) plates to obtain overnight cultures. The MICs of the test compounds were determined by the broth microdilution method in accordance with the Clinical and Laboratory Standards Institute (CLSI) guidelines.[20] Cation-adjusted Mueller-Hinton broth (CAMHB) was used as the growth medium for MIC assays. Briefly, 100 μL of serially diluted compounds (starting concentrations were 64 μg/mL) in CAMH broth were added to the wells of 96-well microtiter plates. Then, 10 µL of 5 × 10^6 CFU/mL bacterial culture was added to each well. […] The MIC was defined as the lowest concentration of a compound that inhibited visual growth of the bacteria. Vancomycin was set as the positive control for this assay.
On the technique in general: In broth dilution the organism is exposed to a series of concentrations in liquid medium.

Data set [5] concerns methicillin-resistant S. aureus (MRSA). Put plainly: MIC by broth microdilution, MRSA strains. It is filed as cell-based. As to conditions: Staphylococcus aureus. Here is the method:
as §2

For data set [6], the system named is vancomycin intermediate resistant S. aureus (VISA). Put plainly: MIC by broth microdilution, VISA strains. The class given is cell-based. How it is done: as §2
A further data set has as its system MRSA/VISA strains. Put plainly: MIC by broth microdilution, MRSA and VISA panel. As to conditions: Staphylococcus aureus, ATCC 33591 / ATCC 43300 / ATCC 700699 / MRSA / VISA, read-out: MICs for MRSA and VISA strains. The class given is cell-based, S. aureus. Here is the method: as §2
A further data set has as its target S. aureus DNA gyrase. The following applies: Figure 1; cited from earlier work.
Another data set can be described thus: in vitro. It is filed as in vitro ADME, mouse. As to conditions: mouse plasma, 37 °C; read-out: In vitro metabolic stability t1/2 (min) in plasma. How it is done:
The mouse plasma was purchased from Charles River and stored at −20 °C. The stock solution of the test compound dissolved in DMSO (50 mM) was prepared and diluted to obtain a working solution at the concentration of 0.2 mM. The working solution of the control compound, i.e. propantheline, was similarly prepared (0.2 mM). Terfenadine (5 ng/mL) and tolbutamide (10 ng/mL) dissolved in acetonitrile were used as two quenching solutions.
The mouse plasma was pre-warmed at 37 °C for 15 min. The working solution of the test/control compound (2 µL) was then added to the mouse plasma (398 µL) in a 96-well plate. Next, 30 µL of the reaction mixture was sampled and moved to 300 µL of quenching solutions at each time point: 0, 5, 15, 30, 60, and 120 min for the control compound and 0, 15, 30, 60, and 120 min for the test compound. When the sampling was done, each sample was centrifuged at 4000 rpm at 4 °C for 15 min. Then, 100 µL of the supernatant was removed and mixed with 100 µL of distilled water for LC-MS/MS analysis with Shimadzu HPLC system and the AB Sciex API 4000 QTRAP instrument. The remaining compound (%) after incubation in plasma versus the incubation time was plotted. The half-life (t1/2) value of the compound was determined via linear regression from the plot.

Regarding `CC(=O)O[C@H]1C(=O)[C@@]2(C)[C@H]([C@H](OC(=O)c3ccccc3)[C@]3(O)C[C@H](OC(=O)[C@H](O)[C@@H](NC(=O)c4ccccc4)c4ccccc4)C(C)=C1C3(C)C)[C@]1(OC(C)=O)CO[C@@H]1C[C@@H]2O` [Paclitaxel, reference compound], the CC50 at 72 h in [1] turned out to be 12.7 nM; in [2], 1.7 nM.
Turning to `COc1ccc2c(c1)[C@]13CCCC[C@@H]1[C@H](C2)N(C)CC3` [dextromethorphan, reference compound], the half-life at 1 µM in data set [3] came out at 16 min.
Take `CN[C@H](CC(C)C)C(=O)N[C@H]1C(=O)N[C@@H](CC(N)=O)C(=O)N[C@H]2C(=O)N[C@H]3C(=O)N[C@H](C(=O)N[C@H](C(=O)O)c4cc(O)cc(O)c4-c4cc3ccc4O)[C@H](O)c3ccc(c(Cl)c3)Oc3cc2cc(c3O[C@@H]2O[C@H](CO)[C@@H](O)[C@H](O)[C@H]2O[C@H]2C[C@](C)(N)[C@H](O)[C@H](C)O2)Oc2ccc(cc2Cl)[C@H]1O` [Vancomycin, reference compound]: the MIC in [4] (ATCC 29213 / BAA-1708 / BAA-976 / MSSA, read-out: MIC over the five MSSA isolates, ATCC 29213, 15, 18-3, BAA976, BAA1708, span over isolates) is 0.5 to 1 µg/mL (≈ 0.345 to 0.69 µM); in [4] (ATCC 29213 / MSSA, MSSA ATCC 29213), 1 µg/mL (≈ 0.69 µM); in data set [4] (BAA-976 / MSSA, MSSA BAA976), 0.5 µg/mL (≈ 0.345 µM); in [4] (BAA-1708 / MSSA, MSSA BAA1708) it was 1 µg/mL (≈ 0.69 µM); in data set [4] (MSSA, MSSA 15), 1 µg/mL (≈ 0.69 µM); in data set [4] (MSSA, MSSA 18-3) it was 0.5 µg/mL (≈ 0.345 µM). For the same compound, the MIC in data set [5] (ATCC 33591 / MRSA) was 2 µg/mL (≈ 1.38 µM); in data set [5] (ATCC 43300 / MRSA), 1 µg/mL (≈ 0.69 µM); in data set [5] (MRSA), 0.5 µg/mL (≈ 0.345 µM); in data set [6] (Staphylococcus aureus, ATCC 700699 / VISA), 4 µg/mL (≈ 2.76 µM); in data set [6] (Staphylococcus aureus, VISA), 4 µg/mL (≈ 2.76 µM); in data set [6] (VISA HIP 5827), 4.0 µg/mL (≈ 2.76 µM). The MIC in the data set with MRSA/VISA strains was 0.5 to 4 µg/mL (≈ 0.345 to 2.76 µM).
Take `CCc1[nH]c(C(=O)NC2CCN(c3nnc(C(C)(C)O)s3)CC2OC)nc1Cl` (stereo not drawn) [DS-2969b]: on S. aureus DNA gyrase, the “S. aureus DNA gyrase IC50” value was 0.14 µg/mL.
`CC(C)[N+](C)(CCOC(=O)C1c2ccccc2Oc2ccccc21)C(C)C` [propantheline, reference compound]: in “in vitro”, the half-life at 1 µM is 66.3 min.
